Test results reported in patent US20240150293A1, “SPIROCYCLOHEXANE DERIVATIVES, PHARMACEUTICAL COMPOSITIONS CONTAINING THEM AND THEIR USES AS ANTI-APOPTOTIC INHIBITORS” (LES LABORATOIRES SERVIER, priority 2021, published 2024).
Where two headings read alike, the source gives them in different places.

How the values were obtained:
[1] = tested on: H929 multiple myeloma tumor line; assay: In vitro cytotoxicity, MTT assay (Example B, Method A); format: cell-based; conditions: H929 cells, 48 hours exposure, read-out: C50
Experimental: The cytotoxicity studies were carried out on the H929 multiple myeloma tumor line.
The cells are distributed onto microplates and exposed to the test compounds for 48 hours. The cell viability is then quantified by a colorimetric assay, the Microculture Tetrazolium Assay (Carmichael et al, Cancer Res. 1987, 47, 939-942).
The results are expressed in C50 which means concentration corresponding to […] of effect/inhibition.

[2] = target: Cy5-labelled Mcl1 (amino acids 171-321) C286S protein (UniProtKB Q07820) (Homo sapiens (Human), UniProt Q07820, C286S); assay: Inhibition of Mcl-1 by the fluorescence quenching assay (Example A, Method B); format: binding
In short: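 Cy5-labelled Mcl1 171-321 C286S (1 nM) quenched by TQ5WS-labelled PUMA peptide (10, 20 or 400 nM); displacement raises fluorescence (Ex 620/Em 680 nm). Buffer 10 mM HEPES, 150 mM NaCl, 0.05% Tween 20, pH 7.4, 5% DMSO; 2 h at room temperature, 11-point curves, IC50 converted to Ki (cKi/eKi).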

Chain of Cy5-labelled Mcl1 (amino acids 171-321) C286S protein (Q07820 171-321 C286S): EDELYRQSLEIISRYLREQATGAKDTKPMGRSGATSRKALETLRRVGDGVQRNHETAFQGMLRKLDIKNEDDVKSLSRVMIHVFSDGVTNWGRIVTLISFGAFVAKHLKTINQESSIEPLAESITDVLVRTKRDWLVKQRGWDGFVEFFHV

Row | Structure (SMILES) | IC50 ([1]; Homo sapiens, NCI-H929, 48 h) [nM] | Ki [2] [nM] | IC50 [1] [nM] | Ki ([2]; Ki determined from IC50) [nM]
1 | C[C@@H](COc1ccnc2c1C1CCC2CC1)C[C@H]1Cc2ccccc2[C@]12CC[C@@](Nc1cccc(Cl)c1)(C(=O)O)CC2 [Example 648, (1r,2′S,4S)-4-(3-chloroanilino)-2′-{(2R)-2-methyl-3-[(5,6,7,8-tetrahydro-5,8-ethanoquinolin-4-yl)oxy]propyl}-2′,3′-dihydrospiro[cyclohexane-1,1′-indene]-4-carboxylic acid] | 790 | 18 | – | –
2 | C[C@@H](COc1ccnc2c1[C@@H](C)CC[C@@H]2C)C[C@H]1Cc2ccccc2[C@]12CC[C@@](Nc1cccc(Cl)c1)(C(=O)O)CC2 [Example 661, (1r,2′S,4S)-4-(3-chloroanilino)-2′-[(2R)-3-{[(5S,8S)-5,8-dimethyl-5,6,7,8-tetrahydroquinolin-4-yl]oxy}-2-methylpropyl]-2′,3′-dihydrospiro[cyclohexane-1,1′-indene]-4-carboxylic acid] | 4970 | 80.7 | – | –
3 | CC(C)(COc1ccnc2sccc12)CC1Cc2ccccc2C12CCC(Nc1cccc(Cl)c1)(C(=O)O)CC2 (single isomer, unassigned) [Example 623, (1r,4r)-4-(3-chloroanilino)-2′-{2,2-dimethyl-3-[(thieno[2,3-b]pyridin-4-yl)oxy]propyl}-2′,3′-dihydrospiro[cyclohexane-1,1′-indene]-4-carboxylic acid] | – | 2320 | 30000 | –
4 | CC1CCCc2nccc(NC[C@H](C)C[C@H]3Cc4ccccc4[C@]34CC[C@@](Nc3cccc(Cl)c3)(C(=O)O)CC4)c21 (stereo partly drawn) [Example 655, (1r,2′S,4S)-4-(3-chloroanilino)-2′-{(2R)-2-methyl-3-[(5-methyl-5,6,7,8-tetrahydroquinolin-4-yl)amino]propyl}-2′,3′-dihydrospiro[cyclohexane-1,1′-indene]-4-carboxylic acid] | 8420 | 50.9 | – | –
5 | C[C@@H](COc1ccnc2c1[C@H](C)CCC2)C[C@H]1Cc2ccccc2[C@]12CC[C@@](Nc1cc(F)cc(Cl)c1)(C(=O)O)CC2 [Example 704, (1r,2′S,4S)-4-(3-chloro-5-fluoroanilino)-2′-[(2R)-2-methyl-3-{[(5R)-5-methyl-5,6,7,8-tetrahydroquinolin-4-yl]oxy}propyl]-2′,3′-dihydrospiro[cyclohexane-1,1′-indene]-4-carboxylic acid] | 240 | 1.49 | – | –
6 | C[C@@H](COc1ccnc2c1C(F)CCC2)C[C@H]1Cc2ccccc2[C@]12CC[C@@](Nc1cccc(Cl)c1)(C(=O)O)CC2 (single isomer, unassigned) [Example 685] | – | 5.8 | 1460 | –
7 | C[C@@H](COc1ccnc2c1[C@@H](C)CC[C@@H]2O)C[C@H]1Cc2ccccc2[C@]12CC[C@@](Nc1cccc(Cl)c1)(C(=O)O)CC2 [Example 675, (1r,2′S,4S)-4-(3-chloroanilino)-2′-[(2R)-3-{[(5S,8S)-8-hydroxy-5-methyl-5,6,7,8-tetrahydroquinolin-4-yl]oxy}-2-methylpropyl]-2′,3′-dihydrospiro[cyclohexane-1,1′-indene]-4-carboxylic acid] | 6980 | 29.9 | – | –
8 | C[C@@H](COc1ccnc2c1[C@H](C)CC[C@H]2C)C[C@H]1Cc2cc(F)ccc2[C@]12CC[C@@](Nc1cccc(Cl)c1)(C(=O)O)CC2 [Example 773, (1r,2′S,4S)-4-(3-chloroanilino)-2′-[(2R)-3-{[(5R,8R)-5,8-dimethyl-5,6,7,8-tetrahydroquinolin-4-yl]oxy}-2-methylpropyl]-5′-fluoro-2′,3′-dihydrospiro[cyclohexane-1,1′-indene]-4-carboxylic acid] | 32.2 | 0.279 | – | –
9 | O=C(O)[C@]1(Nc2cccc(Cl)c2)CC[C@]2(CC1)C(Br)=Cc1ccccc12 [Example 75, (1s,4s)-2′-bromo-4-(3-chloroanilino)spiro[cyclohexane-1,1′-indene]-4-carboxylic acid] | 30000 | – | – | 119
10 | CC[C@H]1CCc2nccc(OC[C@H](C)C[C@H]3Cc4ccccc4[C@]34CC[C@@](Nc3cccc(Cl)c3)(C(=O)O)CC4)c21 [Example 613, (1r,2′S,4S)-4-(3-chloroanilino)-2′-[(2R)-3-{[(5S)-5-ethyl-6,7-dihydro-5H-cyclopenta[b]pyridin-4-yl]oxy}-2-methylpropyl]-2′,3′-dihydrospiro[cyclohexane-1,1′-indene]-4-carboxylic acid] | 2360 | 18.9 | – | –
11 | C[C@@H](COc1ncnc2c1CCCC2)CC1=Cc2ccccc2[C@]12CC[C@@](Nc1cccc(Cl)c1)(C(=O)O)CC2 [Example 636, (1r,4R)-4-(3-chloroanilino)-2′-{(2R)-2-methyl-3-[(5,6,7,8-tetrahydroquinazolin-4-yl)oxy]propyl}spiro[cyclohexane-1,1′-indene]-4-carboxylic acid] | 3080 | 16.2 | – | –
12 | C[C@@H](COc1ccnc2c1[C@H](C)CCC2)C[C@H]1Cc2ccccc2[C@]12CC[C@@](Nc1ccnc(Cl)c1)(C(=O)O)CC2 [Example 714, (1r,2′S,4S)-4-[(2-chloropyridin-4-yl)amino]-2′-[(2R)-2-methyl-3-{[(5R)-5-methyl-5,6,7,8-tetrahydroquinolin-4-yl]oxy}propyl]-2′,3′-dihydrospiro[cyclohexane-1,1′-indene]-4-carboxylic acid] | 1260 | 4.75 | – | –
13 | C[C@@H]1CCCc2nccc(OCC(CC3Cc4ccccc4[C@]34CC[C@@](Nc3cccc(Cl)c3)(C(=O)O)CC4)C(F)F)c21 (single isomer, unassigned) [Example 518] | – | 1260 | 12000 | –
14 | C[C@@H]1CCCc2nccc(OCC(CC3Cc4ccccc4[C@]34CC[C@@](Nc3cccc(Cl)c3)(C(=O)O)CC4)C(F)F)c21 (single isomer, unassigned) [Example 519] | – | 0.909 | 202 | –
15 | C[C@@H](COc1ccnc2c1[C@H](C)CCC2)C[C@@H]1Cc2cc3c(cc2[C@]12CC[C@@](Nc1cccc(Cl)c1)(C(=O)O)CC2)OCO3 [Example 841, (1r,4R,6′R)-4-(3-chloroanilino)-6′-[(2R)-2-methyl-3-{[(5R)-5-methyl-5,6,7,8-tetrahydroquinolin-4-yl]oxy}propyl]-6′,7′-dihydro-2′H-spiro[cyclohexane-1,5′-indeno[5,6-d][1,3]dioxole]-4-carboxylic acid] | 76.6 | 0.172 | – | –
16 | Cc1cc2c(cc1C)[C@]1(CC[C@@](Nc3cccc(Cl)c3)(C(=O)O)CC1)[C@@H](C[C@@H](C)COc1ccnc3ccsc13)C2 [Example 733, (1r,2′S,4S)-4-(3-chloroanilino)-5′,6′-dimethyl-2′-{(2R)-2-methyl-3-[(thieno[3,2-b]pyridin-7-yl)oxy]propyl}-2′,3′-dihydrospiro[cyclohexane-1,1′-indene]-4-carboxylic acid] | 211 | 1.52 | – | –
17 | C[C@@H](COc1ccnc2c1[C@H](C)CCC2)C[C@@H]1Cc2cc(F)c(F)cc2[C@]12CC[C@@](Nc1cccc(Cl)c1)(C(=O)O)CC2 [Example 776, (1r,2′R,4R)-4-(3-chloroanilino)-5′,6′-difluoro-2′-[(2R)-2-methyl-3-{[(5R)-5-methyl-5,6,7,8-tetrahydroquinolin-4-yl]oxy}propyl]-2′,3′-dihydrospiro[cyclohexane-1,1′-indene]-4-carboxylic acid] | 227 | 2.28 | – | –
